Measurements: patent US20150306112A1 (National Cheng Kung University, priority 2014, published 2015)

Assays:
C57/BL6 splenocytes = assay: Splenocyte proliferation by MTS assay; type: cell-based, mouse
Experimental: (§1) FIG. 1. […] After the incubation, cell lysates were assessed by immunoblot. […] In the same condition, cell proliferation was evaluated at 24, 48 and 72 h by MTS assay (lower). […] Data are expressed as the mean±SEM (n=4). **P, 0.01; ***P, 0.001 vs. stimulators-treated groups. Similar results were obtained in at least three independent experiments.
Primary mouse splenocytes were cultured in 96-well plates at a density of 4×10^5 cells/well in 10% FBS RPMI 1640 medium and activated with three different stimulators (Con A: 5 μg/mL; PHA: 2.5 μg/mL; Anti-CD3/CD28: 10/1 μg/mL) at 37° C. in 5% CO2/air. […] The cell proliferation was evaluated by MTS assay with a CellTiter kit (Promega, Madison, Wis.).

human JAK3 JH1-JH2 = molecular target: T1, human JAK3 JH1-JH2 (Homo sapiens, UniProt P52333); assay: Native PAGE antibody competition, JAK3 JH1-JH2; type: binding; details: antibody against aa 716-967
T1 construct: incubated with human JAK2 JH1-JH2 and JAK3 JH1-JH2 at 37° C. for 3 h; purchased Life Technologies
T1 sequence (P52333 521-1124): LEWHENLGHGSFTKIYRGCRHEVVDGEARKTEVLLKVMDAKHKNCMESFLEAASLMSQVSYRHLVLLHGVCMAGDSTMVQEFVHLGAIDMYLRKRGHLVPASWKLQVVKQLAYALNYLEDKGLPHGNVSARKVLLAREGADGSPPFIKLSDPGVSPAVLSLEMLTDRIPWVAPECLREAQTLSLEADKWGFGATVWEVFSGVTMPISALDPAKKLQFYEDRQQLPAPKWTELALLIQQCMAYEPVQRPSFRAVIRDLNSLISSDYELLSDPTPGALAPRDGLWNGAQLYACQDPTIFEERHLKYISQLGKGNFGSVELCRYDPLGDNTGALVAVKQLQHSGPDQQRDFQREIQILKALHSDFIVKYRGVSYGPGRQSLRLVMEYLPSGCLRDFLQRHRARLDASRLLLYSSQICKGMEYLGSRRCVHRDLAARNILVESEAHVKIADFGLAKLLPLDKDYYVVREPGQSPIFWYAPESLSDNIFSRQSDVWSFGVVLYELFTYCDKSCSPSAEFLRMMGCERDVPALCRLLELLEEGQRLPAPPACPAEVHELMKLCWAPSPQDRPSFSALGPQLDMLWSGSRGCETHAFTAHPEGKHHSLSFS
Experimental: Samples were loaded onto native PAGE gels for electrophoresis, and the levels of free JH1-JH2 domain were measured by immunoblotting.

[1] = test system: IFN-γ secretion of primary mouse splenocytes; assay: IFN-γ secretion analysis by ELISA in splenocytes; type: cell-based; details: 24 h, concentration-dependent
Experimental: as §1
Primary mouse splenocytes were plated at 1×10^5 cells/well with 10% FBS RPMI medium in 96-well plates. Four different experimental conditions were tested. […] All experiments were conducted at 37° C. After a total 24 h of incubation, supernatant IFN-γ concentrations were measured by ELISA kit following the manufactures instructions.

STAT3 in RAW264.7 cells = assay: Immunoblot of IL-6-induced pSTAT3 in RAW264.7 cells; type: cell-based
Experimental: (§2) FIG. 5. […] Cell proliferation was measured by MTS assay. ***P<0.001, **P<0.01, *P<0.05 when compared with the control group. […] Following incubation, proteins were extracted and assessed by immunoblot analysis. Similar results were obtained in at least three independent experiments.
(§3) Cell lysates were analysed by immunoblotting with primary antibodies against pSTAT1, pSTAT3, IRF-1 and β-actin, followed by the appropriate HRP-linked secondary antibodies. Immunoreactive protein bands were detected using an enhanced chemiluminescence (ECL) kit (Pierce Biotechnology, Rockford, Ill.).

[2] = test system: STAT1, STAT3 and IRF-1 in splenocytes; assay: Immunoblot of IFN-γ/pSTAT1 and IL-6/pSTAT3 signaling in splenocytes; type: cell-based, mouse
Experimental: as §1, §3

IRF-1 in Jurkat cells = assay: IRF-1 expression by immunoblot in Jurkat cells; type: cell-based, human; details: 20 μM, vs vehicle-treated cells
Experimental: as §1
The increase in cleaved pro-caspase-3 and pro-caspase-8 was also observed at the end of the 24 h ZAA-treatment. […] In other words, ZAA was safe in normal cells, but not in rapidly proliferating cells.

human JAK2 JH1-JH2 = assay: Native PAGE antibody competition, JAK2 JH1-JH2; type: binding; details: antibody against JAK2 aa 745-955
[3] = test system: JAK2, STAT3, STAT5 and LMO2 in HepG2 cells; assay: Immunoblot of JAK2/STAT3/STAT5/LMO2 in HepG2 cells; type: cell-based, human; details: 20 μM, 48 h
Experimental: (§4) FIG. 3. […] Total cell lysates were examined for the indicated proteins by immunoblotting. (B) Jurkat cells were transfected with p-GAS-Luc plasmids. […] Total cell lysates were harvested, and their luciferase activities were determined and normalised to the total protein. […] Total mRNA was prepared, and the mRNA levels of IRF-1 and SOCS-1 were detected by RT-PCR. GAPDH was used as the reference band. […] Total cell lysates were examined for the indicated proteins by immunoblotting. β-actin was used as internal control. […] Total cell lysates were examined for the indicated proteins by immunoblotting. All data are one of three independent experiments with similar results.
(§5) As JAK2/STAT3 signaling has a role in human hepatoma HepG2 cell proliferation, JAK2 activation promotes recruitment to the receptor complex of STAT3 and STAT5 [32], and LMO2 expression.

[4] = test system: IRF-1 and SOCS-1 transcription; assay: RT-PCR of IRF-1 and SOCS-1 mRNA; type: cell-based, human; details: Jurkat and THP-1 cells
Experimental: as §4
Total RNA was extracted using the Trizol reagent according to the manufacturer's instructions. IRF-1, SOCS-1 and glyceraldehyde 3-phosphate GAPDH mRNA expression levels were detected by RT-PCR.

JAK1 and TYK2 = assay: Immunoblot of IFN-α/IFN-β-induced STAT1 and JAK1 phosphorylation in Jurkat cells; type: cell-based, human
Experimental: as §4, §5

[5] = test system: Con A-induced liver injury; assay: Con A-induced hepatitis in mice; type: in vivo, C57BL/6 mice
Experimental: FIG. 4. […] (A) Representative microphotographs showing liver and spleen histopathologic changes with hematoxylin-and-eosin-staining (original magnification ×200). (B) The necrosis was analysed with a four-point score: 0, no; 1, 1-20% necrosis; 2, 20-40% necrosis; 3, >40% necrosis. Infiltration of leukocytes was graded on a four-point severity scale: 0, none; 1, little; 2, moderate; 3, mass. (C) Serum ALT and AST activities were measured at 8 h after Con A injection. (D) Serum levels of IFN-γ, IL-6 and IL-4 were measured at 8 h after Con A injection by ELISA. (E) Proteins from liver and spleen tissues of vehicle, ZAA and dexamethasone-treated mice were extracted and subjected to immunoblot. Values are shown as mean±S.E.M. from individual mice (n=10-13 mice/group). ***P<0.001,**P<0.01, *P<0.05 as compared with vehicle-treated mice. Similar results were obtained in at least three independent experiments.
The positive control animals with Con A-induced hepatitis were given the same amount of solvent (0.2% cyclodextrin) i.p., without any drugs. Blood samples were collected from each group for plasma transaminase activities and cytokine expression level determination. Part of the liver and spleen biopsy samples were fixed in 10% formalin, embedded in paraffin for further hematoxylin-eosin staining and the rest of the tissue samples were frozen at −80° C. for further studies.
Liver injury was quantified by determination of alanine aminotransferase (ALT) and aspartate aminotransferase (AST) activities in serum, according to the Reitman-Frankel method.

[6] = test system: P-388 murine leukaemia cells; details: cited from earlier work
JAK3 = assay: Immunoblot of IL-2 induced JAK3/STAT5 phosphorylation in Jurkat and THP-1 cells; type: cell-based, human; details: ZAA 3 h, cytokine 30 min
Experimental: as §4
(§6) Cell lysates were analysed by western blot with primary antibodies against JAK2, pJAK2, JAK3, pJAK3, pSTAT1, pSTAT3, pSTAT5 and β-actin, followed by the appropriate HRP-linked secondary antibodies. Immunoreactive protein bands were detected using an enhanced chemiluminescence (ECL) kit (Pierce Biotechnology, Rockford, Ill.).

JAK2 = assay: Immunoblot of JAK2/STAT phosphorylation in Jurkat and THP-1 cells; type: cell-based, human; details: ZAA 3 h, cytokine 30 min
Experimental: as §4, §6

pSTAT1 and IRF-1 = assay: Immunoblot of IFN-γ activated pSTAT1 and IRF-1 in Jurkat, THP-1, HMEC-1 and Chang liver cells; type: cell-based, human; details: 2 h and 8 h, ZAA pre-treatment
Experimental: FIG. 7. IFN-γ-activated STAT1 and induced IRF-1 protein expression in Jurkat, THP-1, Chang liver and HMEC-1 cells. […] After various time periods, cells were harvested, and total protein extracts were prepared for imunoblot analysis using the indicated antibodies. Similar results were obtained in at least three independent experiments.
as §3

Jurkat cells = assay: Jurkat cell proliferation by MTS assay and caspase immunoblot; type: cell-based, human
[7] = test system: BALB/c and C57/BL6 splenocytes; assay: Mixed lymphocyte reaction assay; type: cell-based, mouse; details: 72 h, MTS
Experimental: as §2
The cell number of total lymphocytes was measured using the CellTiter kit.

[8] = test system: interferon-gamma activated sequence (GAS); assay: Reporter assay for GAS transactivation activity; type: cell-based, human; details: Jurkat cells, IFN-γ 20 ng/mL, luciferase reporter
Experimental: as §4
The serum-containing medium of logarithmic growth Jurkat cells was replaced with serum-free RPMI, and the cells were transfected with p-GAS-Luc (0.5 μg/mL) plasmids using the Neon Transfection System (Invitrogen). Four hours later, the serum-free medium was replaced with RPMI containing 10% FBS. […] Luciferase reporter activity was measured according to the manufacturer's recommendation.

[9] = 20 mg/kg i.p., 8 h after Con A injection

## C=C(CC[C@@H](C)[C@H]1CC[C@H]2C3=C(C(=O)C[C@]12C)[C@@]1(C)CCC(=O)[C@@H](C)[C@@H]1CC3=O)C(C)C(=O)O (some centres unmarked) [ZAA, Zhankuic acid A]
C57/BL6 splenocytes; Con-A, PHA or anti-CD3/CD28-induced splenocytes, concentration-dependent
  stimulator-activated T cell proliferation: significantly inhibited
C57/BL6 splenocytes; no stimulator, up to 20 μM
  proliferation of splenocytes, ZAA alone: did not affect
Human JAK3 JH1-JH2
  anti-JAK3 antibody recognition of native JH1-JH2 domain: reduced
[1]
  Con-A-induced IFN-γ secretion: reduced
STAT3 in RAW264.7 cells
  IL-6-induced Tyr705 phosphorylation of STAT3: suppress
[2]; IFN-γ, concentration-dependent
  IRF-1 (downstream of STAT): inhibitory effect
[2]; splenocytes
  IL-6-induced Tyr705 phosphorylation of STAT3: suppress
[2]; splenocytes and Jurkat cells, IFN-γ 30 min
  IFN-γ-induced Tyr701 phosphorylation of STAT1: completely inhibit
IRF-1 in Jurkat cells
  IRF-1 expression: suppressed
Human JAK2 JH1-JH2
  anti-JAK2 antibody recognition of native JH1-JH2 domain: reduced
[3]
  phosphorylation of JAK2, STAT3 and STAT5, and LMO2 expression: effectively inhibit
[4]
  IFN-γ stimulated IRF-1 and SOCS-1 transcription: significantly prevented
JAK1 and TYK2; 20 μM
  JAK1 phosphorylation: not suppressed
JAK1 and TYK2; Jurkat cells, via JAK1 and TYK2
  IFN-α and IFN-β-induced STAT1 phosphorylation: could not inhibit
[5]; 20 mg/kg i.p. 1 h prior to Con A, 8 h
  extent of liver damage (histopathology): markedly reduce
[5]; 20 mg/kg i.p. pre-treatment
  pathologic grades: necrosis and infiltration of leukocytes: significant preventative effects
[5]; 20 mg/kg i.p., 8 h after Con A
  hepatitis phenotype by ALT and AST serum levels: almost completely recovered
[5]; [9]
  reduction of serum level of IFN-γ: 37%
  reduction of serum level of IL-4: 38%
  reduction of serum level of IL-6: 66%
[5]; 20 mg/kg pre-treatment, immunoblot
  caspase 3 activity and IRF-1 expression in liver and spleen tissues: significantly reduced
[6]
  cytotoxic activity: exhibited cytotoxic activity
JAK3
  IL-2 induced JAK3/STAT5 phosphorylation: potently inhibited
JAK2
  IFN-γ-induced JAK2/STAT1, IL-6 induced JAK2/STAT1 and JAK2/STAT3, GM-CSF induced JAK2/STAT5 phosphorylation: potently inhibited
pSTAT1 and IRF-1
  IFN-γ activated pSTAT1 and IRF-1: suppressed
Jurkat cells; Jurkat, 24 h ZAA-treatment
  cleaved pro-caspase-3 and pro-caspase-8: increase
Jurkat cells; without or with Con A, MTS
  Jurkat cell proliferation: remarkably inhibited
[7]
  cell proliferation in mixed lymphocytes reaction: inhibitory effect
[8]
  GAS-mediated transactivation: inhibited
